As a reminder, the IC50 is the concentration at which inhibition is half-maximal. One may read the melting point as the temperature of the solid-liquid transition.

SMILES strings stand for the structures.

Data set [1] has as its system HeLa (cervical cell line). The experiment in a line: MTT cytotoxicity assay, HeLa. The format is cell-based. The note with it: Homo sapiens, read-out: IC50 against HeLa. As for the experimental part: (§1) The anticancer activity of compounds 5a–5o were screened according to the MTT assays. The MTT assays were performed as previously described[32]^,[33]. Anticancer activity of final compounds was assessed against five different cancer cell lines A549 (lung carcinoma cell line), HeLa (cervical cell line), MCF-7 (human breast adenocarcinoma cell line), HepG2 (human liver carcinoma cell line) and C6 (rat glioma cell line) cell lines as well as NIH3T3 (mouse embryo fibroblast cell line). Doxorubicin and Hoechst 33342 were used as the reference drugs in the MTT assays.
(§2) The benzimidazole-1,3,4-oxadiazole derivatives (5a-5o) were tested their cytotoxic effects in vitro using five cancer cell line A549 (lung carcinoma cell line), HeLa (cervical cell line), MCF-7 (human breast adenocarcinoma cell line), HepG2 (human liver carcinoma cell line) and C6 (rat glioma cell line) cell lines as well as NIH3T3 (mouse embryo fibroblast cell line). Doxorubicin and Hoechst 33342 were used for this study as a reference drugs.

For data set [2], the system named is HepG2 (human liver carcinoma cell line). The experiment in a line: MTT cytotoxicity assay, HepG2. The format is cell-based. The following applies: Homo sapiens, read-out: IC50 against HepG2. On the procedure: as §1, §2
Data set [3] deals with A549 (lung carcinoma cell line). The experiment in a line: MTT cytotoxicity assay, A549. Type of data set: cell-based. The following applies: Homo sapiens, A549, MTT assay, read-out: IC50 against A549. On the procedure:
as §1, §2
For orientation: Formazan colour is commonly taken as a measure of viable cells.

In data set [4] the test system is C6 (rat glioma cell line). As to the kind of experiment: MTT cytotoxicity assay, C6. The format is cell-based. The note with it: Rattus norvegicus, read-out: IC50 against C6. On the procedure: as §1, §2
Data set [5] has as its system MCF-7 (human breast adenocarcinoma cell line). The experiment in a line: MTT cytotoxicity assay, MCF-7. Type of data set: cell-based. The note with it: Homo sapiens, MCF7, MCF-7 cell line, read-out: IC50 against MCF-7. On the procedure:
as §1, §2

The test system of data set [6] is NIH3T3 (mouse embryo fibroblast cell line). As to the kind of experiment: MTT cytotoxicity assay, NIH3T3 healthy cells. The format is cell-based. The note with it: Mus musculus, read-out: IC50 against NIH3T3. On the procedure:
The anticancer activity of compounds 5a–5o were screened according to the MTT assays. The MTT assays were performed as previously described[32]^,[33]. Anticancer activity of final compounds was assessed against five different cancer cell lines A549 (lung carcinoma cell line), HeLa (cervical cell line), MCF-7 (human breast adenocarcinoma cell line), HepG2 (human liver carcinoma cell line) and C6 (rat glioma cell line) cell lines as well as NIH3T3 (mouse embryo fibroblast cell line). Doxorubicin and Hoechst 33342 were used as the reference drugs in the MTT assays. It is crucial that an anticancer agent affects the cancer cell line but having minimal or no side-effect on healthy cells. For this purpose, the cytotoxic effects of the active compounds on the NIH3T3 cell line were investigated (Table 2).

Regarding `COc1ccc(-c2nc3ccc(-c4nnc(SCC(=O)N5CCN(C)CC5)o4)cc3[nH]2)cc1` [5f, 2-((5-(2-(4-Methoxyphenyl)-1H-benzo[d]imidazol-6-yl)-1,3,4-oxadiazol-2-yl)thio)-1–(4-methyl-piperazin-1-yl)-ethane-1-on], the melting point fell in the range of 156.6 to 158.7 °C. Moreover, the concentration for half-maximal inhibition (IC50) in data set [1] was at least 100 µM. In data set [2], the half-maximal inhibitory concentration (IC50) was at least 100 µM. Besides, the half-maximal inhibitory concentration (IC50) in data set [3] is at least 100 µM. In addition, the 50% inhibitory concentration (IC50) in data set [4] is at least 100 µM. Further, the 50% inhibitory concentration (IC50) in data set [5] is at least 100 µM.

Take `CCOc1ccc(-c2nc3ccc(-c4nc5cc(N6CCN(C)CC6)ccc5[nH]4)cc3[nH]2)cc1` [Hoechst 33342, reference compound]: the IC50 in data set [1] was 0.306 ± 0.015 µM; in data set [2], 27.8 ± 1.19 µM; in data set [6], 7.39 ± 0.269 µM; in data set [5], 2.4 ± 0.118 µM.

`COc1ccc(-c2nc3ccc(-c4nnc(SCC(=O)N5CCN(c6ccccc6)CC5)o4)cc3[nH]2)cc1` [5h, 2-((5-(2-(4-Methoxyphenyl)-1H-benzo[d]imidazol-6-yl)-1,3,4-oxadiazol-2-yl)thio)-1–(4-(phenyl)-piperazin-1-yl)-ethane-1-on] displayed a melting point of 166.7 to 169.2 °C. The half-maximal inhibitory concentration (IC50) in data set [1] was at least 100 µM. Further, the IC50 in data set [2] was at least 100 µM. In data set [3], the IC50 is at least 100 µM. Moreover, in data set [4], the IC50 is at least 100 µM. Besides, the IC50 in data set [5] is at least 100 µM.

`COc1ccc(-c2nc3ccc(-c4nnc(SCC(=O)N5CCN(c6ccccn6)CC5)o4)cc3[nH]2)cc1` [5ı, 2-((5-(2-(4-Methoxyphenyl)-1H-benzo[d]imidazol-6-yl)-1,3,4-oxadiazol-2-yl)thio)-1–(4-(pyridin-2-yl)-piperazin-1-yl)-ethane-1-on] registered a melting point of 168.3 to 170.1 °C. In addition, in data set [1], the IC50 was at least 100 µM. Moreover, in data set [2], the IC50 was at least 100 µM. For the same molecule, the IC50 in data set [3] was at least 100 µM. Moreover, the IC50 in data set [4] is at least 100 µM. In data set [5], the half-inhibitory concentration (IC50) is at least 100 µM.

`CCN1CCN(C(=O)CSc2nnc(-c3ccc4nc(-c5ccc(OC)cc5)[nH]c4c3)o2)CC1` [5g, 2-((5-(2-(4-Methoxyphenyl)-1H-benzo[d]imidazol-6-yl)-1,3,4-oxadiazol-2-yl)thio)-1–(4-ethyl-piperazin-1-yl)-ethane-1-on]: the melting point was in the range of 180.4 to 181.9 °C. For the same molecule, the IC50 in data set [1] is at least 100 µM. In addition, the concentration for half-maximal inhibition (IC50) in data set [2] was at least 100 µM. Moreover, the IC50 in data set [3] is at least 100 µM. Moreover, in data set [4], the IC50 is at least 100 µM. In addition, the IC50 in data set [5] was at least 100 µM.

For the molecule `COc1ccc(-c2nc3ccc(-c4nnc(SCC(=O)N5CCN(c6ncccn6)CC5)o4)cc3[nH]2)cc1` [5j, 2-((5-(2-(4-Methoxyphenyl)-1H-benzo[d]imidazol-6-yl)-1,3,4-oxadiazol-2-yl)thio)-1–(4-(pyrimidin-2-yl)-piperazin-1-yl)-ethane-1-on], the melting point was 118.7 to 120.3 °C. For the same molecule, in data set [1], the IC50 is at least 100 µM. Besides, the half-inhibitory concentration (IC50) in data set [2] is at least 100 µM. The 50% inhibitory concentration (IC50) in data set [3] was at least 100 µM. For the same molecule, the IC50 in data set [4] was at least 100 µM. Besides, the IC50 in data set [5] was at least 100 µM.

On to `O=C(CSc1nnc(-c2ccc3nc(-c4ccc(O)cc4)[nH]c3c2)o1)N1CCN(c2ccccc2)CC1` [5c, 2-((5–(2-(4-Hydroxyphenyl)-1H-benzo[d]imidazol-6-yl)-1,3,4-oxadiazol-2-yl)thio)-1–(4-(phenyl) -piperazin-1-yl) -ethane-1-on], for which the melting point is 271.1 to 273.4 °C. Also, the IC50 in data set [1] was determined as 20.3 ± 1.1 µM. Further, the IC50 in data set [2] stood at 21.9 ± 0.991 µM. Also, the half-maximal inhibitory concentration (IC50) in data set [3] is at least 100 µM. For the same molecule, the IC50 in data set [6] worked out at 44.56 ± 0.221 µM. For the same molecule, in data set [4], the half-inhibitory concentration (IC50) is at least 100 µM. The IC50 in data set [5] is at least 100 µM.

As to `CCOc1ccc(-c2nc3ccc(-c4nnc(SCC(=O)N5CCN(c6ccccc6)CC5)o4)cc3[nH]2)cc1` [5m, 2-((5-(2-(4-Ethoxyphenyl)-1H-benzo [d]imidazol-6-yl)-1,3,4-oxadiazol-2-yl)thio)-1–(4-(phenyl)-piperazin-1-yl)-ethane-1-on], the melting point lay in the range of 262.5 to 263.9 °C. Besides, the IC50 in data set [1] is at least 100 µM. The IC50 in data set [2] was at least 100 µM. The IC50 in data set [3] is at least 100 µM. Also, the IC50 in data set [6] came out at 52.3 ± 2.51 µM. In addition, the IC50 in data set [4] is 32.2 ± 1.55 µM. Also, the IC50 in data set [5] is at least 100 µM.
